This note sets out measurements from US7439251B2, “Methods and compositions for treatment of central and peripheral nervous system disorders and novel compounds useful therefor” (Israel Institute for Biological Research, priority 2002, dated 2008).

Series [1] concerns rat pheochromocytoma cells transfected with the M1 mAChR.
For the next series, the system named is tau. Kind of series: Tau phosphorylation, AT8 immunoblot. The following applies: 100 μM; to the control level. It is filed as cell-based. The text has this: Following the experimental design of Sadot et al., J.Neurochem. […] By linking an M1 agonist to an antioxidant moiety tau phophorylation may be decreased, providing a new therapeutic strategy in a variety of CNS disease states due to combined damage due to oxidative stress and tau hyperphosphorylation.
For orientation: Immunoblotting shows a protein as a band on a membrane.

Series [2] is described as follows: Morris water maze in C57BL/10SnJ (small hippocampus) vs C57BL6J mice. It is filed as in vivo. As to conditions: for reversal test, swimming speed: normal hippocampi mice, AF150(S) 0.5 mg/kg, AF267B 1 mg/kg. On the procedure:
C57BL/10SnJ (B10) mice were selected due to their small hippocampi and decreased number of hippocampal pyramidal neurons; the cell loss seemed to be associated with poor spatial learning.
Each group of mice was randomly divided into 7 treatment groups (n=12-14/group). […] All tested compounds and saline were administered once a day for 4 days before starting the behavioral testing, and then for the duration of the 5-day experiment, 30 minutes before testing.
Training: Each mouse was trained for four consecutive days, four trials (one block) per day, in which the platform position remained constant and was located in the center of the southeast quadrant of the pool. Within each block of four trials, each mouse started at each of the starting locations, but the sequence of locations was randomly selected. A trial consisted of placing a mouse by hand into the water facing the wall of the pool at one of four starting locations, north, south, east or west, around the pool's perimeter. Escape latency (the time to find the platform), path length (the distance traveled by the mouse) and speed (the swimming rate of the mouse) were recorded on each trial by the monitoring system.
For each mouse, the path length, escape latency, and swimming speed of the four trials on each of the 4 training days were grouped into blocks (one block for each day). […] Specific comparisons were performed, using the simple main effects contrasts analysis, which is specifically suited for testing significant interactions.
Transfer test. During trial No. 17, on the fourth day, the platform was entirely removed from the pool (a probe trial). In this trial, the mouse was placed into the water for a limited period (30 s), and its spatial bias was measured by recording the relative distribution of escape latency and path length over the four quadrants of the pool.
Reversal test. During trials 18-21, on the fifth day, the platform position was changed to the northwest quadrant, opposite to the training quadrant Thus, during reversal learning, the platform location was moved relative to the configuration of objects within the room, but the pool occupied the same place within the room throughout the entire experiment. Testing of the […] and measures taken were the same as in training.
For each mouse, the escape latency, path length and swimming speed of the reversal test (trials No. 18-21) were grouped into one block.

The next series has as its system ApoE. Kind of series: ApoE synthesis and secretion in rat primary type 1 astrocytes. Type of series: cell-based. As to conditions: 96 hrs; 0.1 nM.
[3] abbreviates: small hippocampus mice, AF compounds 0.5 and 1 mg/kg i.p., rivastigmine, nicotine 1 mg/kg i.p.

Method for ApoE: Primary cultures of type 1 astrocytes were derived from the cortex of Sprague Dawley rats. The compounds tested were dissolved in the culture media and added to cells for 24, 48, 72 and 96 hrs. Media was then removed and kept frozen until ApoE protein levels were evaluated by immunoblot analysis as described in Poirier et al Neuroscience 55: 81-90 (1993).

Take `CC[C@@H]1SC2(CCN(C)CC2)N(S(=O)(=O)c2ccc(F)cc2)C1=O` [AF700, (S)-2-Ethyl-4-(4-fluoro-benzenesulfonyl)-8-methyl-1-thia-4,8diaza-spiro[4.5]decan-3-one]: in series [1], the β-A25-35-induced cytotoxicity entry is “more effective than carbachol and AF267B”.

Consider `CCC1SC2(CCN(C)CC2)N(CCc2c[nH]c3ccccc23)C1=O` (stereo not shown) [AF703, 2-Ethyl-4-[2-(1H-indol-3-yl)ethyl]-8-methyl-1-thia-4,8-diaza-spiro[4.5]decan-3-one], for which, in series [1], the β-A25-35-induced cytotoxicity result was “more effective than carbachol and AF267B”.

As for “(S)-Ethyl-4-(3-1H-indol-3-yl-propionyl)-8-methyl-1-thia-4,8-diaza-spiro[4.5]decan-3-one [AF704B]”, the “phosphorylated tau (AT8)” value with tau is listed as “induce dephosphorylation of tau proteins”.

For `CN1CCCC1c1cccnc1` (stereo not shown) [nicotine, reference compound], the “reversal test, swimming speed” value in series [2] is given as “significantly decreased”. Moreover, in series [2] (normal hippocampus mice), the “training, escape latency” value is listed as “degraded the performance” and the “training, swimming speed” value was “significantly decreased the swimming speed”. Besides, in series [2] (normal hippocampus mice, AF150(S) at 0.5 mg/kg), the “reversal test, escape latency” value was “no significant effect”. In addition, in series [2] (small hippocampus mice), the “training, swimming speed” value is given as “Neither rivastigmine nor nicotine had any significant effect” and the “transfer test, spatial bias” value is listed as “only a partial spatial bias”. For the same compound, in series [2] (setting [3]), the “training, escape latency” value is recorded as “no improving effect”.

Regarding `CC1OC2(CS1)CN1CCC2CC1` (stereo not shown) [AF102B, reference compound], the “inhibition of ApoE production” value in the series on ApoE is “inactive”.

On to `CCC1SC2(CCN(C)CC2)N(C(=O)CCc2c[nH]c3ccccc23)C1=O` (racemic) [AF704, 2-Ethyl-4(3-1H-indol-3-yl-propionyl)-8-methyl-1-thia-4,8-diaza-spiro[4.5]decan-3-one], for which the β-A25-35-induced cytotoxicity entry in series [1] is “more effective than carbachol and AF267B”. The “phosphorylated tau (AT8)” value with tau was “induce dephosphorylation of tau proteins”.

`CCN(C)C(=O)Oc1cccc([C@H](C)N(C)C)c1` [rivastigmine, reference compound]: in series [2], the “reversal test, swimming speed” value is recorded as “significantly decreased”. In series [2] (normal hippocampus mice), the “training, swimming speed” value is given as “significantly decreased the swimming speed”. Moreover, in series [2] (small hippocampus mice), the “training, swimming speed” value is on record as “Neither rivastigmine nor nicotine had any significant effect” and the “transfer test, spatial bias” value is reported as “complete spatial bias”. Also, the “training, path length” value in series [2] (small hippocampus mice, AF150(S) both doses, AF267B the higher dose) is “positively affected the performance”. Further, the “training, escape latency” value in series [2] (setting [3]) was “positively affected the training performance”.
